Source: ChEMBL document CHEMBL3352618, “Discovery of novel pyrimidine and malonamide derivatives as TGR5 agonists” (Bioorg Med Chem Lett, 2014)

Assays:
Type in all cases: ADME, organism-based
Mus musculus [1] = assay: Clearance in male ICR mouse at 5 mg/kg, iv; parameters: dose 5 mg/kg, route intravenous; conditions: in vivo
[2] = Cmax in male ICR mouse at 10 mg/kg, po; parameters: dose 10 mg/kg, route oral; conditions: in vivo
Mus musculus [3] = assay: Volume of distribution at steady state in male ICR mouse at 5 mg/kg, iv; parameters: dose 5 mg/kg, route intravenous; conditions: in vivo
Mus musculus [4] = assay: Mean residence time (last) in male ICR mouse at 5 mg/kg, iv; parameters: dose 5 mg/kg, route intravenous; conditions: in vivo
[5] = Tmax in male ICR mouse at 10 mg/kg, po; parameters: dose 10 mg/kg, route oral; conditions: in vivo
Mus musculus [6] = assay: Volume of distribution at steady state in male ICR mouse at 10 mg/kg, po; parameters: dose 10 mg/kg, route oral; conditions: in vivo
[7] = Half life in male ICR mouse at 5 mg/kg, iv; parameters: dose 5 mg/kg, route intravenous; conditions: in vivo
[8] = AUC (0 to 7 hrs) in male ICR mouse at 10 mg/kg, po; parameters: time < 7 hr, dose 10 mg/kg, route oral; conditions: plasma
[9] = Oral bioavailability in male ICR mouse at 10 mg/kg; conditions: in vivo
[10] = Mean residence time (last) in male ICR mouse at 10 mg/kg, po; parameters: dose 10 mg/kg, route oral; conditions: in vivo
[11] = AUC (0 to 7 hrs) in male ICR mouse at 5 mg/kg, iv; parameters: time < 7 hr, dose 5 mg/kg, route intravenous; conditions: plasma
[12] = Half life in male ICR mouse at 10 mg/kg, po; parameters: dose 10 mg/kg, route oral; conditions: in vivo
[13] = Clearance in male ICR mouse at 10 mg/kg, po; parameters: dose 10 mg/kg, route oral; conditions: in vivo

CL (Mus musculus [1]): 3.49 L/h/kg
Cmax [2]: 0.236 µg/mL
Vdss (Mus musculus [3]): 7.31 L/kg
MRT (Mus musculus [4]): 0.2 h
Tmax [5]: 1 h
Vdss (Mus musculus [6]): 90.5 L/kg
half-life [7]: 1.45 h
AUC(0-t) at 7 h [8]: 0.397 µg·h/mL
bioavailability [9]: 13.9%
MRT last [10]: 1.97 h
AUC(0-t) at 7 h [11]: 1.43 µg·h/mL
half-life [12]: 2.83 h
CL/F [13]: 22.1 L/h/kg
SMILES: CN1CCN(C(=O)c2cnc(O)nc2Oc2cc(Cl)ccc2Cl)c2ccccc21
